These results are taken from article PMC12310718, “Evaluation of newly synthesized schiff base Pd(II) complexes for prostate cancer treatment through in vitro cytotoxicity and molecular mechanistic studies” (Frontiers in Chemistry, 2025).

One data set has as its system MRC-5. The data set can be described thus: MTT cytotoxicity assay, MRC-5 fibroblasts. Type of data set: cell-based, human. Particulars: mean ± SD. The text has this: (§1) In this investigation, two experimental groups of cancer cell lines were employed: human prostate carcinoma cells lacking prostate-specific membrane antigen (PSMA) and androgen receptor independence (DU-145 and HTB-81™), alongside human prostate carcinoma cells (PC-3 and CRL-1435™). The control group comprised non-cancerous human fibroblasts (MRC-5 and CCL-171™). All cell lines utilized in this study were procured from the American Type Culture Collection (ATCC, Manassas, VA, United States). The cells were maintained in a complete medium containing high-glucose DMEM, supplemented with 10% fetal bovine serum and 200 mM L-glutamine (reagents sourced from Sigma-Aldrich, St. Louis, MO, United States). Cultivation of the cells was conducted in 25 cm^2 flasks (Thermo Fisher Scientific, Waltham, MA, United States) at 37°C under conditions of absolute humidity and a 5% CO2 atmosphere. The cytotoxic effects of three newly synthesized Pd(II) complexes were assessed on DU-145, PC-3, and MRC-5 cell lines using the MTT assay. For comparison, the cytotoxicity of cisplatin, a clinically established chemotherapeutic agent, was also evaluated across all cell lines. Cells were harvested during their exponential growth phase, counted, and seeded at a density of 5 × 10^3 cells per well in 96-well culture plates. […] The treated cells were incubated under identical conditions (37°C, 5% CO2, absolute humidity) for durations of 24, 48, and 72 h. After incubation, the medium was removed, and an MTT solution was added to each well. The cells were then incubated for an additional 2 h to facilitate the reduction of thiazolyl blue tetrazolium bromide in the MTT solution. Subsequently, the MTT solution was carefully removed, and the resulting formazan crystals were solubilized in DMSO. […] All experiments were performed in triplicate and repeated across three independent runs. Cell viability was calculated as a percentage by dividing the absorbance of treated cells (minus blank absorbance) by the average absorbance of untreated control cells (minus blank absorbance) and multiplying by 100. % of the viable cells=absorbance of treated cell−absorbance of blank / absorbance of untreated cell−absorbance of blank * 100 […] This analysis was performed using Microsoft Office Excel 2010, leveraging its curve-fitting capabilities to determine precise inhibitory concentrations.

For data set [1], the system named is DU-145 cells. The data set can be described thus: Mitochondrial membrane potential by JC-10 staining. Particulars: DU-145, IC50 of complex, 48 h. Type of data set: cell-based, human. How it is done: JC-10 gathers in the mitochondria of living cells, forming red fluorescence aggregates. On the other hand, JC-10 is also present in a monomeric cytosolic form and dyes cells green in necrotic and apoptotic cells. Mitochondrial membrane potential was assessed using the dye JC-10. DU-145 cells were seeded at a density of 2 × 10^4 cells per well in 24-well cell culture plates and incubated in complete DMEM medium at 37°C with 5% CO2 for 24 h. […] The cells were treated for 20 min with 2.5 μM JC-10 dye in warm PBS. JC-10 accumulation in cells was evaluated using a Gramma Libero FLUO500T trinocular inverted fluorescence microscope. We used the 525/590 nm fluorescence emission ratio for our quantification analysis. We captured images using the 2020 S-EYE Setup Microscope camera and the S-EYE_Setup-1.6.0.11 software. The ImageJ program was used to analyse the images.

Data set [2] can be described thus: Stability assay in PBS by UV-Vis spectra. Type of data set: physicochemical. Particulars: ∼10^–5 M, less than 0.7% DMSO, UV-Vis after 0, 24 and 48 h. How it is done:
The complex used for the testing was dissolved in the minimal amount of DMSO (dimethylsulfoxide) possible and diluted with PBS of ∼10^–5 M in concentration and less than 0.7% DMSO. UV-Vis spectra were recorded after 0, 24 and 48 h in the range 200–600 nm. Absorption spectra were recorded on UV–Vis Perkin–Elmer Lambda 35 spectrophotometer equipped with water thermostated cell.

In another data set the test system is PC-3. The data set can be described thus: MTT cytotoxicity assay, PC-3. Type of data set: cell-based, human. To be noted: mean ± SD.
Text: as §1
(Formazan colour is commonly taken as a measure of viable cells.)

Data set [3] can be described thus: Stability in DMSO by UV-Vis spectra. Type of data set: physicochemical. Particulars: UV-Vis 200–600 nm after t = 0, 24, and 48 h. How it is done: UV-Vis spectra were recorded in DMSO as a solvent, at room temperature, and the data of the absorption wavelength maxima (λ max) are given in Table 3 and Figure 3. […] Further, two more bands are attributed to the ligand 1b, the medium intensity π → π* and very weak and broad n→π* transition of the imine group. Upon coordination, the π → π* band of the imine group decreases in intensity, while the new band at 393 nm, attributed to Ligand-to-Metal Charge Transfer (LMCT), appears ([Felicio et al., 2001]; [Hussain et al., 2019]). The stability of Schiff base metal complexes is a key factor influencing their performance during biological evaluations. Unstable complexes, prone to hydrolysis or degradation, may lead to reduced efficacy, altered mechanisms of action, or false-positive/negative outcomes. Palladium (II), typically adopting a square-planar geometry ([Kostić et al., 2003]), forms stable complexes with bidentate Schiff base ligands, but its coordination environment can be sensitive to ligand exchange. […] In order to determine the stability of selected complex 2b in DMSO, a series of UV-Vis spectra in the range of 200–600 nm were recorded after t = 0, 24, and 48 h (Supplementary Figure SI17) ([Marjanović et al., 2023]).

Another data set concerns DU-145. The data set can be described thus: MTT cytotoxicity assay, DU-145. Type of data set: cell-based, human. To be noted: mean ± SD.
Text: as §1

Another data set concerns CT-DNA. The data set can be described thus: DNA viscosity measurement. Type of data set: binding, calf. To be noted: 0.01 mM DNA in PBS, [2c]/[DNA] 0.1-1. How it is done: All chemicals were used without purification, and all of them are commercially available. ^1H NMR and ^13C NMR spectra were recorded in DMSO-d6 as a solvent with a Bruker Ascend 400 (400 MHz) spectrometer. Chemical shifts are given in parts per million (δ) down from tetramethylsilane as the internal standard. For elemental analyses (C, H, O, N) were used Elementar Vario MICRO elemental analyzer. IR spectra were obtained on Perkin Elmer FT-IR spectrometer, two equipped with a DTGS detector. Mass spectra were recorded at 6546 LC/Q-TOF (Agilent, Santa Clara, CA, SAD) equipped with Jet Stream ion source and connected with 1,290 Infinity II HPLC (Agilent, Santa Clara, CA, AD). Data were collected every second in the mass area 100–1,000 Da. Molar conductance of the Pd(II) complexes was measured on freshly prepared 10^–3 M solutions in DMSO at room temperature using Crison EC-Meter basic 30+conductivity cell. The viscosity of the DNA solution was measured in the absence and presence of increasing amounts of 2c. To the 0.01 mM DNA solution in PBS, a corresponding ratio of examinated compound was added at ratio [2c]/[DNA]: 0.1; 0.2; 0.3; 0.4; 0.5; 0.6; 0.7; 0.8; 0.9 and 1. Data are presented as a plot of (η/η0)1/3 vs. ratio of [2c]/[DNA], where η is the DNA viscosity in the presence of the compound, η0 is the viscosity of DNA in buffer alone.

The test system of data set [4] is DU-145 cells. The data set can be described thus: Clonogenic assay. Type of data set: cell-based, human. To be noted: DU-145, four concentrations, 2 weeks colony formation. How it is done:
In this assay ([Franken et al., 2006]), cells are seeded at low densities and incubated for 2 weeks to allow colony formation, with colonies defined as clusters of ≥50 cells. Treated and untreated cells are compared to assess survival fractions (SF), calculated by normalizing the plating efficiency (PE) of treated cells to that of controls. Colonies are fixed with 6% glutaraldehyde, stained with 0.5% crystal violet, and colonies were quantified using ImageJ software version 1.54 with a standardized macro. Images were first converted to 8-bit grayscale, and background noise was reduced using the “Subtract Background” function. Thresholding was applied to isolate colonies, and the “Analyze Particles” tool was used to count colonies based on defined size and circularity parameters. Only colonies with an area corresponding to ≥50 cells and a circularity range of 0.3–1.0 were included. Overlapping or merged colonies were excluded unless distinct borders were visually discernible. All image processing steps were applied consistently across samples to ensure reproducibility. Data are represented as dose-response survival curves.
Plating efficiency is calculated by the following formula: PE=Number of colonies/Number of cells seeded×100%
Survival fraction is calculated when all plating efficiencies are calculated according to the formula: SF=PEtreated/PEcontrol

Structures are written as SMILES.

Broadly, the IC50 is the concentration at which inhibition is half-maximal. As to `Oc1ccc(CCN=Cc2ccccc2[O][Pd][O]c2ccccc2C=NCCc2ccc(O)cc2)cc1` [Complex 2b], the IC50 with MRC-5 (MRC-5, 24 h drug exposure) was found to be 87.7 ± 8.8 µM; in the data set on MRC-5 (MRC-5, 48 h drug exposure), 78.5 ± 7.7 µM; in the data set on MRC-5 (MRC-5, 72 h drug exposure) it was 49.2 ± 5.1 µM; with PC-3 (PC-3, 24 h drug exposure) it was 75.2 ± 7.2 µM; with PC-3 (PC-3, 48 h drug exposure), 58.6 ± 5.6 µM; in the data set on PC-3 (PC-3, 72 h drug exposure), 29.1 ± 2.8 µM. Further, the 50% inhibitory concentration (IC50) in the data set on DU-145 (DU-145, 24 h drug exposure) came out at 75.9 ± 7.3 µM; with DU-145 (DU-145, 48 h drug exposure), 19.2 ± 2.1 µM; in the data set with DU-145 (DU-145, 72 h drug exposure), 8.7 ± 0.8 µM. Further, the “increase of JC-10 green/JC-10 red ratio compared to untreated cells” value (“increase of JC-10 green/JC-10 red ratio” for short) with DU-145 cells [1] is 2.9 fold. Moreover, the “stability in solution (PBS)” value in data set [2] is reported as “sufficient stability in solution under physiologically relevant conditions”. For the same compound, in data set [3], the “stability in DMSO” value was “retaining its structural integrity without signs of ligand displacement or decomposition”.
Regarding `Oc1ccc(CN=Cc2ccccc2[O][Pd][O]c2ccccc2C=NCc2ccc(O)cc2)cc1` [Complex 2a], the IC50 came out at 94.3 ± 9.7 µM in the data set on MRC-5 (MRC-5, 24 h drug exposure); 92.4 ± 9.1 µM with MRC-5 (MRC-5, 48 h drug exposure); 83 ± 8.1 µM in the data set on MRC-5 (MRC-5, 72 h drug exposure); 94.1 ± 9.1 µM in the data set on PC-3 (PC-3, 24 h drug exposure); 89.8 ± 8.8 µM with PC-3 (PC-3, 48 h drug exposure); 79.3 ± 7.7 µM in the data set with PC-3 (PC-3, 72 h drug exposure). The IC50 was 83.6 ± 9.2 µM in the data set with DU-145 (DU-145, 24 h drug exposure); 17.5 ± 1.6 µM in the data set on DU-145 (DU-145, 48 h drug exposure); 9.3 ± 0.9 µM with DU-145 (DU-145, 72 h drug exposure). Moreover, in the data set with DU-145 cells [1], the “increase of JC-10 green/JC-10 red ratio” value is on record as 2.1 fold.
Turning to `N.N.[Cl][Pt][Cl]` [CP, cisplatin, reference compound], the IC50 in the data set on MRC-5 (MRC-5, 24 h drug exposure) came out at 90.1 ± 9.2 µM; in the data set on MRC-5 (MRC-5, 48 h drug exposure), 41.9 ± 4.4 µM; with MRC-5 (MRC-5, 72 h drug exposure) it was 24.4 ± 0.8 µM; in the data set on PC-3 (PC-3, 48 h drug exposure) it was 29.7 ± 3.1 µM; in the data set on PC-3 (PC-3, 72 h drug exposure) it was 21.9 ± 2.2 µM; in the data set on DU-145 (DU-145, 24 h drug exposure) it was 22.3 ± 2.4 µM. The IC50 in the data set with DU-145 (DU-145, 48 h drug exposure) was 11.4 ± 1.1 µM; in the data set on DU-145 (DU-145, 72 h drug exposure) it was 8.2 ± 0.8 µM.
For `C(=NCCc1c[nH]c2ccccc12)c1ccccc1[O][Pd][O]c1ccccc1C=NCCc1c[nH]c2ccccc12` [Complex 2c], the IC50 in the data set on MRC-5 (MRC-5, 24 h drug exposure) was 80.7 ± 8.1 µM; in the data set with MRC-5 (MRC-5, 48 h drug exposure), 75.6 ± 7.7 µM; in the data set with MRC-5 (MRC-5, 72 h drug exposure) it was 42.3 ± 4.1 µM; in the data set with PC-3 (PC-3, 24 h drug exposure), 38.4 ± 3.6 µM; in the data set on PC-3 (PC-3, 48 h drug exposure), 12.5 ± 1.1 µM; in the data set with PC-3 (PC-3, 72 h drug exposure), 8.6 ± 0.9 µM. In addition, the concentration for half-maximal inhibition (IC50) in the data set with DU-145 (DU-145, 24 h drug exposure) was found to be 48.4 ± 5.1 µM; in the data set on DU-145 (DU-145, 48 h drug exposure), 11 ± 1.2 µM; with DU-145 (DU-145, 72 h drug exposure), 7.1 ± 0.8 µM. Besides, the “increase of JC-10 green/JC-10 red ratio” value in the data set with DU-145 cells [1] is recorded as 3.2 fold. Further, the “DNA binding mode from viscosity” value in the data set with CT-DNA is recorded as “intercalates very weakly”. Also, the “long-term antiproliferative effect (survival fraction)” value in the data set on DU-145 cells [4] was “most pronounced effect”.
